The nature of data set [1]: Human liver microsome intrinsic clearance (HLM Clint). Format: in vitro ADME. The note with it: human liver microsomes, 37 °C. As to the method:
Intrinsic metabolic clearance.
The test compound was added to a final concentration of 1 μM, and the residual concentrations were tracked with LC-MS/MS at defined time points.

For data set [2], the system named is DNA synthesis in Trypanosoma brucei. Kind of data set: DNA synthesis (EdU incorporation). The class given is cell-based. The conditions noted are these: for Effect on EdU incorporation into nuclei (DNA synthesis): DTC25 (CBL0174 48 nM, CBL0187 54 nM), vs DMSO, p < 0.0001; for DNA Synthesis affected: DTC25, Table S3. Here is the method: Incorporated EdU was tracked by clicking with azide-Alexa Fluor-488 and observed with a fluorescence microscope. For quantitation, at least 100 cells were analyzed from each sample. (A) Representative images of the EdU-positive signal (green) with DAPI (blue) in 0.1% DMSO (top), CBL0174-treated (middle), or CBL0187-treated cells (bottom). (B) Representative images for quantitation of nuclear EdU brightness (nEdU). CellProfiler 3.1.9 was used to extract the EdU fluorescence signal over the DAPI area. Lines represent the median with error bars denoting standard deviation (SD) from three biological replicates. The statistical significance of the distribution of EdU brightness in different treatment groups was analyzed with a Mann–Whitney test.
Bloodstream trypanosomes (5 × 10^5 cells/mL) pretreated with DTC25 concentrations of CBL0174 or CBL0187 in HMI-9 medium (for 15 min) were incubated with 5-ethynyl-2′-deoxyuridine (EdU) (Abcam) (300 μM) for 1 h. Cells were prepared as per [Sullenberger et al. (2017)]. Images of trypanosomes were captured using a DeltaVision II Olympus inverted microscope processed with Fiji (ImageJ, v 2.0.0) and analyzed using CellProfiler 3.1.9 ([Sanz-Rodriguez et al., 2022]).

The subject of data set [3] is T. brucei Lister427. Description: Delayed trypanocidal assay (6 h exposure, wash-off). The class given is cell-based, Trypanosoma brucei. The note with it: starting cell density 1 × 10^5/mL instead of 5 × 10^5/mL.
The subject of data set [4] is endocytosis of bovine serum albumin (BSA) in Trypanosoma brucei. The class given is cell-based. The conditions noted are these: DTC25; Table S3. As to the method:
Cells were washed and resuspended in serum-free medium. Trypanosomes were incubated with fluorescent endocytosis ligands transferrin (Tf) or bovine serum albumin (BSA) for 30 min (37 °C). A flow cytometer was used to detect fluorescence intensity per cell. Propidium iodide (PI) was used to stain and gate out non-viable cells. Histograms present fluorescence intensity of Tf-AF488 (A) or BSA-AF647 (B) for every cell (n > 10,000 for each cargo) in DMSO or drug-treated samples. Points on the scatter plot represent mean fluorescence intensities of Tf (C) or BSA (D) from three biological replicates (calculated with FlowJo). Bars indicate mean ± SD. […]
Curaxin or DMSO-treated trypanosomes (5 × 10^5/mL) were washed with serum-free HMI-9 medium (500 uL). […] Cells were transferred to an ice-water bath, washed with cold PBS/G at 4 °C (3,000 g for 5 min), resuspended in PBS/G (500 μL) containing propidium iodide (3 μM), and analyzed on a flow cytometer (Beckman Coulter CytoFLEX S). FlowJo software (FlowJo, LLC) was used to gate trypanosomes based on size and shape (forward and side scatter features), and fluorescence intensity of endocytosed protein was measured in viable cells (negative for propidium iodide uptake). FlowJo software was used to determine the mean fluorescence intensity of each cargo in trypanosomes (at least 10,000 events). […]

The test system of data set [5] is T. brucei Lister427. Description: Delayed trypanocidal assay (6 h exposure, wash-off). The class given is cell-based, Trypanosoma brucei. The note with it: for DTC25 (Figure 1) / DTC50 (Figure 1) / DTC90 (Figure 1): 5 × 10^5/mL, 6 h, wash, 24 h drug-free, unit not given; for DTC50 (concentration causing 50% cidality): 6-h treatment and wash-off. As to the method: Trypanosomes were washed, enumerated with a Coulter Counter, and transferred into a drug-free HMI-9 medium for 24 h in a 24-well plate (1 × 10^5 cells/mL). After 24 h, cells were enumerated with a Coulter counter (see flow-chart). Data obtained were analyzed using GraphPad Prism to determine DTC25, DTC50, and DTC90 values.
Delayed trypanocidal assay
Mid-logarithmic growth-phase T. b. Lister427 were inoculated into HMI-9 medium (5 × 10^5 cell/mL). Cells were incubated with either 0.1% DMSO (vehicle) or serial dilutions of drug in 24-well plates for 6 h at 37 °C/5% CO2, following which trypanosomes were pelleted (3,000 g, 5 min), rinsed with drug-free HMI-9 medium, and cells enumerated with a Coulter counter. Trypanosomes were then inoculated at 1 × 10^5 cells/mL in 24-well-plates or 384-well plates and cultured for 24 h, after which trypanosomes were checked for viability with a hemocytometer and enumerated with a Coulter counter. Each experiment was performed thrice, and non-linear regression graphs plotted with GraphPad Prism were used to obtain DTC50 values ([Bachovchin et al., 2019]).

Setting [6] is: 6 h treatment at 5 × 10^5/mL, wash-off, survival tracked 24 h.

The term microsomal CLint denotes a measure of how fast metabolising enzymes remove a compound, apart from limits set by blood flow. A higher microsomal CLint goes with rapid turnover. `CC(=O)c1cc2c3cc(C(C)=O)c(O)cc3n(CCCN(C)C)c2cc1O` [CBL0174, 1-[6-acetyl-9-[3-(dimethylamino)propyl]-2,7-dihydroxy-carbazol-3-yl]ethanone]: the microsomal CLint at 1 μM in data set [1] was 4.89 µL/min/mg. In addition, in data set [2], the “Effect on EdU incorporation into nuclei (DNA synthesis)” value was “inhibited EdU incorporation into nuclei” and the “DNA Synthesis affected” value is “Yes”. For the same compound, in data set [3], the “DTC25 T. brucei Lister427 (value in parenthesis)” value worked out at 60 nM, the “DTC50 T. brucei Lister427 (value in parenthesis)” value was 122 nM and the “DTC90 T. brucei Lister427 (value in parenthesis)” value was determined as 513 nM. Besides, the “Endocytosis BSA affected” value in data set [4] is reported as “No”. In data set [5], the “DTC25 (Figure 1)” value is 48, the “DTC50 (Figure 1)” value was determined as 110, the “DTC90 (Figure 1)” value worked out at 600 and the “DTC50 (concentration causing 50% cidality)” value came out at 0.11 µM. For the same compound, in data set [5] (setting [6]), the “DTC50 T. brucei Lister427” value came out at 110 nM and the “DTC90 T. brucei Lister427” value is on record as 600 nM.

For `CC(=O)c1cc2c3cc(C(C)=O)c(O)cc3n(CCNC(C)C)c2cc1O` [CBL0187, 1-[6-acetyl-2,7-dihydroxy-9-[2-(isopropylamino)ethyl]carbazol-3-yl]ethanone], in data set [1], the microsomal CLint at 1 μM came to 12.4 µL/min/mg. In addition, in data set [2], the “Effect on EdU incorporation into nuclei (DNA synthesis)” value was “inhibited EdU incorporation into nuclei” and the “DNA Synthesis affected” value was “Yes”. In data set [3], the “DTC25 T. brucei Lister427 (value in parenthesis)” value is on record as 41 nM, the “DTC50 T. brucei Lister427 (value in parenthesis)” value is given as 98 nM and the “DTC90 T. brucei Lister427 (value in parenthesis)” value was 592 nM. For the same compound, in data set [4], the “Endocytosis BSA affected” value is on record as “No”. Further, in data set [5], the “DTC25 (Figure 1)” value was determined as 54, the “DTC50 (Figure 1)” value was determined as 110, the “DTC90 (Figure 1)” value turned out to be 550 and the “DTC50 (concentration causing 50% cidality)” value was determined as 0.11 µM. In data set [5] (setting [6]), the “DTC25 T. brucei Lister427” value came out at 54 nM, the “DTC50 T. brucei Lister427” value was 110 nM and the “DTC90 T. brucei Lister427” value is 550 nM.

These data come from paper PMC11927960, “Multiparameter ranking of carbazoles for anti-trypanosome lead discovery” (Frontiers in drug discovery, 2024).
